Data: patent US11078188B2, “Dihydroquinoxaline bromodomain recognition protein inhibitor, preparation method and use thereof” (SHANGHAI INSTITUTE OF MATERIA MEDICA, CHINESE ACADEMY OF …, priority 2017, dated 2021)

What was measured:
3A4 = 3A4 (Homo sapiens (Human), UniProt P08684); test: Direct inhibition test (DI test), CYP 3A4; type: in vitro ADME; settings: human liver microsomes 0.2 mg/ml, 20 min; for Direct inhibition rate (%) 3A4, second value: second of two values a/b (two 3A4 probes midazolam, testosterone; assignment not given)
Sequence of 3A4 (P08684 whole entry): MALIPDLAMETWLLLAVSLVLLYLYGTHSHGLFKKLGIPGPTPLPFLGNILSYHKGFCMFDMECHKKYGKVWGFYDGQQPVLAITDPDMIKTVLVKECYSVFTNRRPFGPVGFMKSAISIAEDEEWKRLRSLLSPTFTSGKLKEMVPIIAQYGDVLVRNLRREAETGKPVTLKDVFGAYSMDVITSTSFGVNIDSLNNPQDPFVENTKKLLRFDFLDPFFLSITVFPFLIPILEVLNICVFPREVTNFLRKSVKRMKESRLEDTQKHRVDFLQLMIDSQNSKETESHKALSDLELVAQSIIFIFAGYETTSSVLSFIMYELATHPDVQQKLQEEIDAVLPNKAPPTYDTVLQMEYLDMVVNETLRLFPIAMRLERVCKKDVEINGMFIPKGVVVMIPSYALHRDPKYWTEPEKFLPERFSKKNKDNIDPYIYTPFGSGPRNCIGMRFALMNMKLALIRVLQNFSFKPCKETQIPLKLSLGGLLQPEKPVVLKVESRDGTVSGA
Method: (§1) The system which was 100 μl of human liver microsomes (final concentration: 0.2 mg/ml) was used for direct inhibition incubation. The system contained NADPH (final concentration: 1 mM), 10 μl compound, positive inhibitor cocktail (ketoconazole, 10 μl, quinidine 10 μl, sulfaphenazole 100 μl, naphthoflavone 10 μl, tranylcypromine 1000 μl), negative control 10 μl DMSO and mixed probe substrate (midazolam 10 μl, testosterone 100 μl, dextromethorphan 10 μl, diclofenac 20 μl, phenacetin 100 μl, mephenytoin 100 μl). The reaction was stopped after the system was incubated for 20 min. The relative activity of the enzyme was calculated by measuring the relative amount of production of the metabolite.

[1] = tested on: MM.1S nude mice xenografts; test: Growth of MM.1S nude mice xenografts in vivo; design: species or system Balb/C nude mice; settings: for TV (mm^3, mean) d0: d0 (at start of administration)
Method: Balb/C nude mice (6 weeks, female, Beijing Huafukang Biotechnology Co., Ltd.) were purchased, and the animals were conditioned for about one week before the test. MM.1S cells were cultured in vitro, and the cells in logarithmic growth phase were resuspended in serum-free RPMI1640 medium to adjust the cell concentration. The cell suspension was subcutaneously injected into forefoot armpit of the Balb/C nude mice with a syringe, and each animal was injected with 150 μL (8.0×10^6/mouse). When the average tumor volume grew to about ˜150 mm^3, the animals were divided into 4 groups containing solvent control group, 50 mg/kg OTX-015 group, and 20 and 50 mg/kg compound 6 groups by the randomized block method and each group contained six animals. […] During the administration period, the tumor diameter was measured twice a week, the body weight of the animals was weighed, the living state of the animals was observed, and abnormal conditions were recorded.
The formula for calculating tumor volume (TV): TV=½×a×b^2, where a and b represent length and width, respectively.
The relative tumor volume (RTV) was calculated based on the measured results, and the calculation formula was: RTV=Vt/V0. Wherein V0 was the measured tumor volume at the time of administration by cage (ie, d0), and Vt was the tumor volume at each measurement.
The relative tumor proliferation rate T/C (%) was calculated based on the measured results, and the calculation formula was as follows: T/C (%)=(TRTV/CRTV)×100%, TRTV: treatment group RTV; CRTV: negative control group RTV.

CYP3A4 = CYP3A4 (Homo sapiens (Human), UniProt P08684); test: Direct inhibition test (DI test), CYP 3A4; type: in vitro ADME; settings: human liver microsomes 0.2 mg/ml, first of two values a/b (two 3A4 probes midazolam, testosterone; assignment not given), read-out: Direct inhibition rate (%) 3A4, first value
Sequence of CYP3A4 (P08684 whole entry): as above
Method: as §1

CYP2D6 = CYP2D6 (Homo sapiens (Human), UniProt P10635); test: Direct inhibition test (DI test), CYP 2D6; type: in vitro ADME; settings: human liver microsomes 0.2 mg/ml, read-out: Direct inhibition rate (%) 2D6
Sequence of CYP2D6 (P10635 whole entry): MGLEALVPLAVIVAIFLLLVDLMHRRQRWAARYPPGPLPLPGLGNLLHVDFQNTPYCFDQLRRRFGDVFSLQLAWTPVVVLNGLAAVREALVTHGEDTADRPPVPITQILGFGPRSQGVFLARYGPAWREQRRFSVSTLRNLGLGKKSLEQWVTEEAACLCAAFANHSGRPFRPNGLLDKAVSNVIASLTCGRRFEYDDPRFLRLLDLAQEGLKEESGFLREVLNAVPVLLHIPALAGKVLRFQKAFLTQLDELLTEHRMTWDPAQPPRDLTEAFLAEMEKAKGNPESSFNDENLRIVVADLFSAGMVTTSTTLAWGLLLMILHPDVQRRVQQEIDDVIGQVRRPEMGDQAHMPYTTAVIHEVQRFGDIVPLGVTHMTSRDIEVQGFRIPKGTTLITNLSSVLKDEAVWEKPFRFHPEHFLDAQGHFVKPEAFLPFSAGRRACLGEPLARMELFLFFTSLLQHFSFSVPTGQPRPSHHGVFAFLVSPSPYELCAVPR
Method: as §1

2C9 = 2C9 (Homo sapiens (Human), UniProt P11712); test: Direct inhibition test (DI test), CYP 2C9; type: in vitro ADME; settings: human liver microsomes 0.2 mg/ml, 20 min
Sequence of 2C9 (P11712 whole entry): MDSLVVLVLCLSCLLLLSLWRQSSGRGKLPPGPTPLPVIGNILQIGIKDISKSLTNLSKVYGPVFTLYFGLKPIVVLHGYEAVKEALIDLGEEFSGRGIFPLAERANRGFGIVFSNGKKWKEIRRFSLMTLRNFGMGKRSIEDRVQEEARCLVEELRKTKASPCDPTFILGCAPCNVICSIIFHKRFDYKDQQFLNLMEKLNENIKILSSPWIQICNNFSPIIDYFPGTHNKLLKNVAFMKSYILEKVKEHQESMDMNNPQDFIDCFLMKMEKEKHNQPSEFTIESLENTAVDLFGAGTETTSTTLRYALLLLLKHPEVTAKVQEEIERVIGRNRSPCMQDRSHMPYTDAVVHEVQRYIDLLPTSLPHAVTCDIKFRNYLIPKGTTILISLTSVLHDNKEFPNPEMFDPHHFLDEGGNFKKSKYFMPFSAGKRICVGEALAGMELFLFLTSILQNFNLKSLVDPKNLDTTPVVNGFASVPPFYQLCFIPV
Method: as §1

2C19 = 2C19 (Homo sapiens (Human), UniProt P33261); test: Direct inhibition test (DI test), CYP 2C19; type: in vitro ADME; settings: human liver microsomes 0.2 mg/ml, 20 min
Sequence of 2C19 (P33261 whole entry): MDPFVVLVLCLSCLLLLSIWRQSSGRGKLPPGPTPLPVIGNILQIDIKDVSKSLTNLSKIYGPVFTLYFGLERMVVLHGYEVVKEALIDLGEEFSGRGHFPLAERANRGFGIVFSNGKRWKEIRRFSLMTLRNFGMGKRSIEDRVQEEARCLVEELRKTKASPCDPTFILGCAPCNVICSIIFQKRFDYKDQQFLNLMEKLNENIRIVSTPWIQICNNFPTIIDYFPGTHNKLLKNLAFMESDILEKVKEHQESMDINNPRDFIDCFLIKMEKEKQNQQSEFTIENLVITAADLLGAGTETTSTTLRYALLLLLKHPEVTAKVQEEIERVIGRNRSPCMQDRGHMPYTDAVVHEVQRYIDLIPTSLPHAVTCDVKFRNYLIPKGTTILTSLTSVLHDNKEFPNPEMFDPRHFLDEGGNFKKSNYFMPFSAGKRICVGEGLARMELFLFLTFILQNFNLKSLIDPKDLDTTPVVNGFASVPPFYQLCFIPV
Method: as §1

1A2 = 1A2 (Homo sapiens (Human), UniProt P05177); test: Direct inhibition test (DI test), CYP 1A2; type: in vitro ADME; settings: human liver microsomes 0.2 mg/ml, 20 min
Sequence of 1A2 (P05177 whole entry): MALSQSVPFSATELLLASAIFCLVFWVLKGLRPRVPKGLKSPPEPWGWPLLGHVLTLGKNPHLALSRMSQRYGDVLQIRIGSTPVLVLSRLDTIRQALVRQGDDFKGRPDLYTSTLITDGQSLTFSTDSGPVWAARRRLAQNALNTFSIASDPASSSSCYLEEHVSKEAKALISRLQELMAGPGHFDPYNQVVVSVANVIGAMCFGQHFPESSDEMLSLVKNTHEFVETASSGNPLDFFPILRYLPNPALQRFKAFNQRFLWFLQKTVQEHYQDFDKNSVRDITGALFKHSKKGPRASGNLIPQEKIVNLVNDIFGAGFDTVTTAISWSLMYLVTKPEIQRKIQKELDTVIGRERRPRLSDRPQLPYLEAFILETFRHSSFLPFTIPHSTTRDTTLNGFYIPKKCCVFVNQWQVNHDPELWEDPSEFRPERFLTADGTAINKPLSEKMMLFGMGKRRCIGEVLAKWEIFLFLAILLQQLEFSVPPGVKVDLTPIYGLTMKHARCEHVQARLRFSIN
Method: as §1

SMILES	Direct inhibition rate (%) 3A4, first value (3A4; first of two values a/b (two 3A4 probes midazolam, testosterone; assignment not given)) [%]	Direct inhibition rate (%) 3A4, second value (3A4) [%]	RTV (mean SD) ([1]; 20 mg/kg qd/14 po)	T/C (%) ([1]; 20 mg/kg qd/14 po)	TV (mm^3, mean) d0 ([1]; 20 mg/kg qd/14 po) [mm^3]	TV (mm^3, mean) d14 ([1]; 20 mg/kg qd/14 po) [mm^3]	RTV (mean SD) ([1]; 50 mg/kg qd/14 po)	T/C (%) ([1]; 50 mg/kg qd/14 po)	TV (mm^3, mean) d0 ([1]; 50 mg/kg qd/14 po) [mm^3]	TV (mm^3, mean) d14 ([1]; 50 mg/kg qd/14 po) [mm^3]	inhibitory effect on the growth of MM.1S nude mice xenografts (in words) ([1]; oral administration of 50 mg/kg per day)	inhibition at 20 min (CYP3A4) [%]	inhibition at 20 min (CYP2D6) [%]	Direct inhibition rate (%) 2C9 (2C9) [%]	Direct inhibition rate (%) 2C19 (2C19) [%]	Direct inhibition rate (%) 1A2 (1A2)
Cc1ccc(-n2nc(C(=O)N3CCN(C)CC3)nc2-c2ccc3c(c2)N(C2CCCC2)[C@H](C)C(=O)N3C)cc1 [Example 6]	22	31	584.14	48.32	184.28	1024.45	417.16	34.51	185.34	660.39	significant inhibitory effect					
Cc1ccc(-n2nc(C(=O)N3C[C@@H](C)N[C@@H](C)C3)nc2-c2ccc3c(c2)N(C2CCCC2)[C@H](C)C(=O)N3C)cc1 [Example 12]		28										23	4	28	12	no
